In ChEMBL document CHEMBL5357061, “Enhanced Inhibition of Cancer Cell Migration by a Planar Catechin Analog” (ACS Med Chem Lett, 2024):
Active and inactive are the calls of the source. The rule behind the calls is not given here.

How the values were obtained:
RGM1 = experiment: Inhibition of cell migration in rat RGM1 cells assessed as reduction in healing of scratched areas at 200 uM measured after 12 hrs by scratch-wound healing assay; format: functional, cell-based
RGK1 = experiment: Inhibition of cell migration in rat RGK1 cells assessed as reduction in healing of scratched areas at 200 uM measured after 12 hrs by scratch-wound healing assay; format: functional, cell-based

SMILES | inhibition (RGM1) | inhibition (RGK1)
Oc1cc(O)c2c(c1)O[C@H](c1ccc(O)c(O)c1)[C@@H](O)C2 | inactive | inactive
CC1(C)O[C@H]2Cc3c(O)cc(O)cc3O[C@@H]2c2cc(O)c(O)cc21 | Active | Active
